Assay [1] concerns Canis familiaris. In words: Evaluated for 50% increase of myocardial contractility in anesthetized dog, administered intravenously. The class given is functional, Canis lupus familiaris, Myocardium.
Assay [2] has as its system Canis familiaris. Description: Compound was evaluated for 40-60% increase of myocardial contractility in a conscious dog model orally administered. It counts as functional, Canis lupus familiaris, Myocardium.
In assay [3] the test system is Canis familiaris. Description: Compound was evaluated for 40-60% increase of myocardial contractility in a conscious dog model orally administered. It counts as functional, Canis lupus familiaris, Myocardium.
Assay [4] concerns Canis familiaris. In words: Compound was evaluated for 50% increase of myocardial contractility in a conscious dog model orally administered. The class given is functional, Canis lupus familiaris, Myocardium.
In assay [5] the test system is Canis familiaris. In words: Compound was evaluated for 40-60% increase of myocardial contractility in a conscious dog model perorally administered. The class given is functional, Canis lupus familiaris, Myocardium.
Assay [6] deals with Canis familiaris. In words: Percent increase in heart rate was evaluated by effect of Cardiotonic agents on myocardial contractility in conscious dog administered orally at dose of 0.1 mg/kg; Value is not statistically significant. The note with it: route oral. It counts as functional, Canis lupus familiaris.
Assay [7] relates to Canis familiaris. Description: Percent increase in heart rate was evaluated by effect of Cardiotonic agents on myocardial contractility in conscious dog administered orally at dose of 0.31 mg/kg. It counts as functional, Canis lupus familiaris. The note with it: route oral.
Assay [8] relates to Canis familiaris. Description: Percent increase in contractility was evaluated by effect of Cardiotonic agents on myocardial contractility in conscious dog administered orally at dose of 0.1 mg/kg. The class given is functional, Canis lupus familiaris, Myocardium. The conditions noted are these: route oral.
Assay [9] relates to Canis familiaris. In words: Percent increase in contractility was evaluated by effect of Cardiotonic agents on myocardial contractility in conscious dog administered orally at dose of 0.31 mg/kg. The class given is functional, Canis lupus familiaris, Myocardium. The conditions noted are these: route oral.
Assay [10] has as its system Canis familiaris. Description: Cardiovascular activity(blood pressure) (0.31 mg/kg) in dog after beta-blockade. The class given is functional, Canis lupus familiaris.
Assay [11] has as its system Canis familiaris. In words: Cardiovascular activity(blood pressure) (0.31 mg/kg) in dog before beta-blockade. The class given is functional, Canis lupus familiaris.
Assay [12] deals with Canis familiaris. Description: Cardiovascular activity (contractility) (0.31 mg/kg) in dog after beta-blockade. It counts as functional, Canis lupus familiaris.
The test system of assay [13] is Canis familiaris. Description: Cardiovascular activity (contractility) (0.31 mg/kg) in dog before beta-blockade. The class given is functional, Canis lupus familiaris.
Assay [14] has as its system Canis familiaris. Description: Cardiovascular activity(heart rate) (0.31 mg/kg) in dog after beta-blockade. It counts as functional, Canis lupus familiaris.
Assay [15] concerns Canis familiaris. Description: Cardiovascular activity(heart rate) (0.31 mg/kg) in dog before beta-blockade. It counts as functional, Canis lupus familiaris.
In assay [16] the test system is Canis familiaris. Description: Percent increase in contractility was evaluated by effect of Cardiotonic agents on myocardial contractility in conscious dog administered orally at dose of 0.31 mg/kg; Value ranges from (10-20). It counts as functional, Canis lupus familiaris, Myocardium. The note with it: route oral.
In assay [17] the test system is Canis familiaris. In words: Percent increase in contractility was evaluated by effect of Cardiotonic agents on myocardial contractility in conscious dog administered orally at dose of 1.0 mg/kg. The conditions noted are these: route oral. The class given is functional, Canis lupus familiaris, Myocardium.
Assay [18] has as its system Canis familiaris. In words: Percent increase in heart rate was evaluated by effect of Cardiotonic agents on myocardial contractility in conscious dog administered orally at dose of 0.31 mg/kg; Value ranges from(10-15). The class given is functional, Canis lupus familiaris. The note with it: route oral.
Assay [19] has as its system Canis familiaris. In words: Percent increase in heart rate was evaluated by effect of Cardiotonic agents on myocardial contractility in conscious dog administered orally at dose of 1.0 mg/kg. The note with it: route oral. The class given is functional, Canis lupus familiaris.
In assay [20] the test system is Canis familiaris. In words: Percent increase in contractility was evaluated by effect of Cardiotonic agents on myocardial contractility in conscious dog administered orally at dose of 10 mg/kg. It counts as functional, Canis lupus familiaris, Myocardium. The conditions noted are these: route oral.
The subject of assay [21] is Canis familiaris. Description: Percent increase in heart rate was evaluated by effect of Cardiotonic agents on myocardial contractility in conscious dog administered orally at dose of 10 mg/kg. The class given is functional, Canis lupus familiaris. The note with it: route oral.
Assay [22] concerns Canis familiaris. Description: Percent increase in heart rate was evaluated by effect of Cardiotonic agents on myocardial contractility in conscious dog administered orally at dose of 3.1 mg/kg. The conditions noted are these: route oral. It counts as functional, Canis lupus familiaris.
Assay [23] concerns Canis familiaris. Description: Percent increase in contractility was evaluated by effect of Cardiotonic agents on myocardial contractility in conscious dog administered orally at dose of 3.1 mg/kg. It counts as functional, Canis lupus familiaris, Myocardium. The conditions noted are these: route oral.
For assay [24], the system named is Canis familiaris. Description: Cardiovascular activity (heart rate) (0.31 ug/kg) in dog after beta-blockade. It counts as functional, Canis lupus familiaris.
In assay [25] the test system is Canis familiaris. In words: Cardiovascular activity (heart rate) (0.31 ug/kg) in dog before beta-blockade. It counts as functional, Canis lupus familiaris.
Assay [26] has as its system Canis familiaris. In words: Cardiovascular activity (blood pressure) (0.31 ug/kg) in dog before beta-blockade. It counts as functional, Canis lupus familiaris.
In assay [27] the test system is Canis familiaris. Description: Cardiovascular activity (blood pressure) (0.31 ug/kg)in dog after beta-blockade. It counts as functional, Canis lupus familiaris.
Assay [28] concerns Canis familiaris. In words: Cardiovascular activity (contractility) (0.31 ug/kg) in dog after beta-blockade. It counts as functional, Canis lupus familiaris.
Assay [29] deals with Canis familiaris. Description: Cardiovascular activity (contractility) (0.31 ug/kg) in dog before beta-blockade. It counts as functional, Canis lupus familiaris.

Compound `NNC(=O)c1cc(-c2ccc(-n3ccnc3)cc2)nnc1O` came in with a Dose in the assay on Canis familiaris [1] of 1 mg/kg.

With `O=C1CCC(c2ccc(-n3cccn3)cc2)=NN1`, the Dose with Canis familiaris [2] is greater than 3.1 mg/kg.

In the assay with Canis familiaris [1], `Oc1ccc(-c2cccc(-n3ccnc3)c2)nn1` gave a Dose of 0.2 mg/kg.

In the case of `Cc1cc(O)nnc1-c1ccc(-n2cnc3c2CCCC3)cc1`, the Dose with Canis familiaris [1] is greater than 0.1 mg/kg.

`Cc1cc(-c2ccc(-n3ccnc3)cc2)nnc1O` gave a Dose in the assay with Canis familiaris [1] of 0.3 mg/kg.

For `O=C1CCC(c2ccc(-n3cnc(CO)c3)cc2)=NN1`, the Dose with Canis familiaris [1] was determined as 0.034 mg/kg.

As to `Oc1ccc(-c2ccc(-n3ccnc3)cc2)nn1`, in the assay with Canis familiaris [1], the Dose was found to be 0.1 mg/kg.

In turn, `O=c1ccc(-c2ccc(-n3ccnc3)cc2)nn1CCO` came in with a Dose in the assay on Canis familiaris [1] greater than 1 mg/kg.

As to `O=C1CCC(c2ccc(-n3ccnc3)cc2)=NN1Cc1ccccc1`, in the assay with Canis familiaris [3], the Dose was found to be 10 mg/kg.

Regarding `O=C1CCC(c2ccc(-n3ccnc3S)cc2)=NN1`, in the assay with Canis familiaris [2], the Dose is greater than 10 mg/kg.

In the assay on Canis familiaris [1], `O=C1NN=C(c2ccc(-n3ccnc3)cc2)C2CCCCC12` (stereo not drawn) returned a Dose of 1 mg/kg.

`CCC1CC(=O)NN=C1c1ccc(-n2ccnc2)cc1` (stereo not drawn) came in with a Dose in the assay on Canis familiaris [1] of 1 mg/kg.

The compound `O=C1CCC(c2cccc(-n3ccnc3)c2)=NN1` displayed a Dose in the assay on Canis familiaris [4] greater than 1 mg/kg.

As to `Cc1nccn1-c1ccc(C2=NNC(=O)CC2)cc1`, the Dose in the assay with Canis familiaris [5] stood at 1 mg/kg; with Canis familiaris [1], 0.3 mg/kg.

In the case of `O=C1CCC(c2ccc(-n3cnc4ccccc43)cc2)=NN1`, the values for the Dose in the assay on Canis familiaris [3] and in the assay on Canis familiaris [1] were 3.1 mg/kg and 0.1 mg/kg, respectively.

With `Cc1nccn1-c1ccc(-c2ccc(O)nn2)cc1`, the Dose in the assay on Canis familiaris [1] is 0.1 mg/kg.

Turning to `O=C1CCC(c2ccc(-n3cnc4c3CCCC4)cc2)=NN1`, the Dose in the assay with Canis familiaris [3] was greater than 1 mg/kg; in the assay on Canis familiaris [1], 0.064 mg/kg.

With `CCc1nc(C)cn1-c1ccc(C2=NNC(=O)CC2)cc1`, the Dose with Canis familiaris [3] is less than 3.1 mg/kg; in the assay with Canis familiaris [1] it was 0.1 mg/kg.

With `O=C1CCC(c2ccc(-n3cccc3)cc2)=NN1`, the Dose with Canis familiaris [3] is 10 mg/kg.

With `O=C1CCC(c2ccc(-n3cnnc3)cc2)=NN1`, the Dose with Canis familiaris [3] is greater than 3.1 mg/kg.

For `O=C1CCC(c2ccc(-n3cncn3)cc2)=NN1`, in the assay with Canis familiaris [3], the Dose turned out to be 1 mg/kg.

In turn, `Cc1cc(O)nnc1-c1ccc(-n2ccnc2)cc1` returned a Dose in the assay with Canis familiaris [1] greater than 1 mg/kg.

Consider `CN1N=C(c2ccc(-n3ccnc3)cc2)CCC1=O`, for which the Dose with Canis familiaris [1] is greater than 1 mg/kg.

`CSc1nccn1-c1ccc(C2=NNC(=O)CC2)cc1` showed a Dose in the assay with Canis familiaris [5] of 10 mg/kg.

For `C[S+]([O-])c1nccn1-c1ccc(C2=NNC(=O)CC2)cc1` (stereo not drawn), the Dose in the assay with Canis familiaris [3] was 10 mg/kg; in the assay on Canis familiaris [1], 0.3 mg/kg.

Regarding `CS(=O)(=O)c1nccn1-c1ccc(C2=NNC(=O)CC2)cc1`, in the assay with Canis familiaris [3], the Dose is greater than 1 mg/kg.

In the case of `CC1CC(c2ccc(-n3ccnc3)cc2)=NNC1=O` (stereo not drawn), in the assay on Canis familiaris [1], the Dose worked out at 1 mg/kg.

The compound `CCc1nc(C)c(Br)n1-c1ccc(-c2ccc(O)nn2)cc1` displayed a Dose in the assay on Canis familiaris [1] of 0.2 mg/kg.

`Cn1nc(-c2ccc(-n3ccnc3)cc2)ccc1=O` registered a Dose with Canis familiaris [1] greater than 1 mg/kg.

`O=C(O)c1cc(-c2ccc(-n3ccnc3)cc2)nnc1O` showed a Dose in the assay with Canis familiaris [1] greater than 1 mg/kg.

`CCc1nc(C)cn1-c1ccc(-c2ccc(O)nn2)cc1`: the Dose in the assay on Canis familiaris [1] was found to be 0.3 mg/kg.

For the compound `Oc1ccc(-c2ccc(-n3cnc4c3CCCC4)cc2)nn1`, the Dose in the assay with Canis familiaris [1] worked out at 0.1 mg/kg.

`NC(=O)c1cc(-c2ccc(-n3ccnc3)cc2)nnc1O`: in the assay on Canis familiaris [1], the Dose is greater than 1 mg/kg.

In the case of `CC(=O)OCCN1N=C(c2ccc(-n3ccnc3)cc2)CCC1=O`, the Dose in the assay with Canis familiaris [1] was greater than 1 mg/kg.

Turning to `Nc1cc(-c2ccc(-n3ccnc3)cc2)nnc1O`, the Dose in the assay with Canis familiaris [1] amounted to 0.3 mg/kg.

For the compound `CC1CC(O)=NN=C1c1ccc(-n2ccnc2)cc1` (stereo not drawn) [CI-930], the results for the Dose in the assay with Canis familiaris [2] and in the assay with Canis familiaris [1] were 0.1 mg/kg and 0.013 mg/kg, respectively. The Increase in the assay with Canis familiaris [6] was determined as 34%; in the assay on Canis familiaris [7], 49%; in the assay on Canis familiaris [8] it was 42%; in the assay on Canis familiaris [9], 70%.

In the assay on Canis familiaris [1], `CSc1ccc(C(=O)c2[nH]c(=O)[nH]c2C)cc1` [ENOXIMONE] had a Dose of 0.283 mg/kg.

As for `O=C1CCC(c2ccc(-n3ccnc3)cc2)=NN1` [IMAZODAN], the Change in the assay on Canis familiaris [10] was -2.8%; in the assay with Canis familiaris [11] it was -4.2%; in the assay on Canis familiaris [12], 62.4%; in the assay with Canis familiaris [13], 82%; with Canis familiaris [14], 5.4%; in the assay with Canis familiaris [15] it was 24%. Further, the Dose turned out to be 1 mg/kg with Canis familiaris [2] and 0.045 mg/kg in the assay on Canis familiaris [1]. Further, the Increase with Canis familiaris [16] turned out to be 10%; with Canis familiaris [17], 40%; in the assay with Canis familiaris [18], 10%; in the assay on Canis familiaris [19] it was 29%.

In the case of `Nc1cc(-c2ccncc2)c[nH]c1=O` [INAMRINONE], the Dose with Canis familiaris [1] stood at 0.389 mg/kg. The Increase with Canis familiaris [20] is given as 45%; in the assay on Canis familiaris [21], 18%; in the assay with Canis familiaris [22] it was 23%; with Canis familiaris [23], 6%.

For the compound `CC(C)NCC(O)c1ccc(O)c(O)c1` (stereo not drawn) [ISOPROTERENOL], the Change is listed as 0.4% with Canis familiaris [24]; 31% with Canis familiaris [25]; -6.6% in the assay with Canis familiaris [26]; 1% in the assay with Canis familiaris [27]; 10.4% with Canis familiaris [28]; 96% with Canis familiaris [29].

For the compound `Cc1[nH]c(=O)c(C#N)cc1-c1ccncc1` [MILRINONE], the Dose in the assay with Canis familiaris [1] was found to be 0.037 mg/kg. For the same compound, the Increase came out at 45% in the assay with Canis familiaris [17] and 60% in the assay on Canis familiaris [19].

As to `COc1cc([S+](C)[O-])ccc1-c1nc2cccnc2[nH]1` (stereo not drawn) [SULMAZOLE], the Dose in the assay on Canis familiaris [1] was determined as 0.435 mg/kg. The Increase is 57% in the assay with Canis familiaris [20] and 61% with Canis familiaris [21].

As to `CC1CC(=O)NN=C1c1ccc(-n2cnc3c2CCCC3)cc1` (stereo not drawn) [TETRAHYDROBENXIMIDAZOLE], the Dose in the assay with Canis familiaris [3] was determined as 0.3 mg/kg; in the assay with Canis familiaris [1] it was 0.02 mg/kg.

Source of the values: ChEMBL document CHEMBL1122943, “Cardiotonic agents. 2. Synthesis and structure-activity relationships of 4,5-dihydro-6-[4-(1H-imidazol-1-yl)phenyl]-3(2H)-pyridazinones: a new class of positive inotropic agents” (1985).
